From patent US20200377477A1, “DEGRADERS OF EGFR AND METHODS OF USE THEREOF” (DANA-FARBER CANCER INSTITUTE, INC., priority 2018, published 2020)
Read-outs that look alike come from different tables or passages of the source.

How the values were obtained:
[1] = biological target: T1, EGFR T790M/L858R Ba/F3 cell line (Homo sapiens, UniProt P00533, T790M/L858R, cells depend on it); assay: Ba/F3 cell proliferation (MTS assay), EGFR T790M/L858R; format: cell-based, murine
T1 construct: The constructs were shuttled into the retroviral vector JP1540 using the BD Creator™ System (BD Biosciences)
Description: The EGFR mutant L858R, Del E746_A750, L858R/T790M, DelE746_A750/T790M, L858R/T790M/C797S and Del/T790M/C797S Ba/F3 cells were previously described (Zhou e al., Nature 462, (2009), 1070-1074). All cell lines were maintained in RPMI 1640 (Cellgro; Mediatech Inc., Hemdon, Calif.) supplemented with 10% FBS 100 units/mL penicillin, 100 units/mL streptomycin, and 2 mM glutamine. L858R cells were maintained in ACL-4 media (Invitrogen, Carlsbad, Calif.) supplemented with 5% FBS, 100 units/mL penicillin, 100 units/mL streptonycin, and 2 mM glutamine. The EGFR I941R mutation was introduced via site directed mutagenesis using the Quick Change Site-Directed Mutagenesis kit (Stratagene; La Jolla, Calif.) according to the manufacturer's instructions. All constructs were confirmed by DNA sequencing. The constructs were shuttled into the retroviral vector JP1540 using the BD Creator™ System (BD Biosciences). Ba/F3 cells were infected with retrovirus and according to standard protocols, as described previously (Zhou 2009). Stable clones were obtained by selection in puromycin (2 μg/ml).
Growth and inhibition of growth was assessed by MTS assay and was performed according to previously established methods (Zhou 2009). The MTS assay is a colorimetric method for determining the number of viable cells that is based on the bioreduction of MTS by cells to a formazan product that is soluble in cell culture medium and can be detected spectrophotometrically. […] All experimental points were set up in six wells and all experiments were repeated at least three times. […] The curves were fitted using a non-linear regression model with a sigmoidal dose response.

[2] = biological target: T2, recombinant EGFR T790M/L858R kinase (Homo sapiens, UniProt P00533, L858R/T790M); assay: HTRF-based EGFR biochemical assay
T2 construct: Constructs spanning residues 696-1022 of the human EGFR; GST (cleaved yes); made in house; host or cells: Sf9 insect cells
Description: Constructs spanning residues 696-1022 of the human EGFR (including wild type and L858R, L858R/T790M, T790M, and T790M/V948R mutant sequences) were prepared in a GST-fusion format using the pTriEX system (Novagen) for expression in Sf9 insect cells essentially as described (Yun et al., PNAS 105, 2070-2075 (2008); Yun et al., Cancer Cell 11, 217-227 (2007)). EGFR kinase proteins were purified by glutathione-affinity chromatography followed by size-exclusion chromatography after cleavage with TEV or thrombin to remove the GST fusion partner following established procedures. (Yun 2008; Yun 2007).
EGFR biochemical assays were carried out using a homogeneous time-resolved fluorescence (HTRF) assay as described previously. The reaction mixtures contained 1 μM biotin-Lck-peptide substrate, wild type or mutant EGFR enzyme in reaction buffer (50 mM HEPES pH 7. 1, 10 mM MgCl2, 0.01% BSA, 1 mM TCEP and 0.1 mM Na3VO4) at a final volume of 10 μL. Enzyme concentrations were adjusted to accommodate varying kinase activity and ATP concentrations (0.2-0.4 nM L858R/T790M; or 2-4 nM L858R, or 2-4 nM T790M, or nM WT). All reactions were carried out at room temperature in white ProxiPlate™ 384-well Plus plates (PerkinElmer) and were quenched with 5 μL of 0.2 M EDTA at 60 min. Five μL per well of the detection reagent containing 2.5 ng PT66K (Cis-bio) and 0.05 μg SAXL (Prozyme) were added, and the plates were then incubated at room temperature for 1 hour and read with an EnVision plate reader.

[3] = absence of cetuximab, read-out: Ba/F3 cellular activity (EC50) T790M/L858R
[4] = read-out: Ba/F3 cellular activity (EC50) T790M/L858R + Cetuximab, presence of 1 μg/mL cetuximab

T1 sequence (P00533 whole entry T790M/L858R): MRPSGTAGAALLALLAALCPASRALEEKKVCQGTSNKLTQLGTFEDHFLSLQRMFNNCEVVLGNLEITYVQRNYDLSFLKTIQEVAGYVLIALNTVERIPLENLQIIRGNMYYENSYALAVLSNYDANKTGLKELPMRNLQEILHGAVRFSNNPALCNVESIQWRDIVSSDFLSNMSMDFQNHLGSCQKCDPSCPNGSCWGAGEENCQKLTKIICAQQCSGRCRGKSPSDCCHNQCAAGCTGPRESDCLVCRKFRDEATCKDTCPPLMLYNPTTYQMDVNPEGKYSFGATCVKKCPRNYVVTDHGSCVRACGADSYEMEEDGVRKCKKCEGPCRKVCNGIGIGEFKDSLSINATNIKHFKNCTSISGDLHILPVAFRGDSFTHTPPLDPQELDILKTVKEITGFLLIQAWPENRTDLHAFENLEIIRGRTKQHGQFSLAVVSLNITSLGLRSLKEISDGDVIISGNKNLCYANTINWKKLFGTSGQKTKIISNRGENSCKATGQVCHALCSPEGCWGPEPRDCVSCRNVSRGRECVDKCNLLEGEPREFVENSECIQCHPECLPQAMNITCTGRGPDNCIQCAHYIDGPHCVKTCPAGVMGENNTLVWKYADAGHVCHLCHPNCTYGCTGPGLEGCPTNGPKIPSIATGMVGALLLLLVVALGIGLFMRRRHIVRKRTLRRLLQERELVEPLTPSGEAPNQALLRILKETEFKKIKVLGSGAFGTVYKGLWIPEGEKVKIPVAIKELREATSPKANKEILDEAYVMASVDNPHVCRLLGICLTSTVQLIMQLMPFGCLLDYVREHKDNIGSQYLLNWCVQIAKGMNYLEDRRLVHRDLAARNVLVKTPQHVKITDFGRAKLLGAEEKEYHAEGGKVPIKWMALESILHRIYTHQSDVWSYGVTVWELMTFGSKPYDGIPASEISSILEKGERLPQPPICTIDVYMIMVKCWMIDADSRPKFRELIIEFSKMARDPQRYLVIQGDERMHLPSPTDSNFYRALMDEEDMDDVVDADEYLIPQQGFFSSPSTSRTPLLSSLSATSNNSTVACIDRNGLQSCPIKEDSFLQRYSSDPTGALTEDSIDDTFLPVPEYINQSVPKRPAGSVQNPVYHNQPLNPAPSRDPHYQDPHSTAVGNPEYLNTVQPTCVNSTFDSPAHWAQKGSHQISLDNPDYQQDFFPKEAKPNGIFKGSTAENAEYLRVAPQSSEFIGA
T2 sequence (P00533 696-1022 T790M/L858R): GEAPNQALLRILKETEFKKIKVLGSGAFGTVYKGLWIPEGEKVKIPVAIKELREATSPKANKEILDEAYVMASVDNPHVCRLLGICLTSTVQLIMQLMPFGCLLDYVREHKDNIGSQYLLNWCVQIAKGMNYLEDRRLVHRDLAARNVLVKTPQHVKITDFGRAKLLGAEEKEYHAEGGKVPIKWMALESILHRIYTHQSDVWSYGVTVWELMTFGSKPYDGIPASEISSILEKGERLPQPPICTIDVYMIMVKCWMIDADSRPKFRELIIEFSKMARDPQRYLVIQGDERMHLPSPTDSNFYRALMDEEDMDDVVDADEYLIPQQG

EC50 [1, 3] [nM] | EC50 [1, 4] [nM] | IC50 [2] [nM] | Structure (SMILES)
≥ 750 | ≥ 750 | ≥ 750 | C=CC(=O)Nc1ccc2c(c1)N(Cc1ccccc1)C(=O)c1cc(-c3ccc(N4CCNCC4)cc3)ccc1N2 [I-3, N-(10-Benzyl-11-oxo-2-(4-(piperazin-1-yl)phenyl)-10,11-dihydro-5H-dibenzo[b,e][1,4]diazepin-8-yl)acrylamide]
≥ 750 | 500 to 750 | ≥ 750 | C=CC(=O)Nc1ccc2c(c1)N(Cc1ccccc1)C(=O)c1cc(-c3ccc4[nH]ccc4c3)ccc1N2 [I-1]
< 250 | < 250 | ≥ 750 | O=C(CCl)Nc1ccc2c(c1)N(Cc1ccccc1)C(=O)c1cc(-c3ccc4[nH]ccc4c3)ccc1N2 [I-2]
≥ 750 | 250 to 500 |  | O=C1c2cc(Br)ccc2Nc2ccc(F)cc2N1Cc1ccccc1 [I-a, 10-Benzyl-2-bromo-8-fluoro-5,10-dihydro-11H-dibenzo[b,e][1,4]diazepin-11-one]
